Columns and labels:
Assay in all cases: relative viability (nuclei count vs DMSO), 5 days (fraction); higher = more cells survive
[1] = compound: C1=CC2=C(C=CC(=C2)C=C3C(=O)NC(=NCC4=CC=CS4)S3)N=C1 [RO-3306] + COc1cc2c(Oc3ccc(NC(=O)C4(C(=O)Nc5ccc(F)cc5)CC4)cc3F)ccnc2cc1OCCCN1CCOCC1 [Foretinib] (partner 0.25 µM)
Procedure, shortened: (§1)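 Lung cancer cell lines in 1536-well plates were dosed by pin tool the day after seeding, either with one drug alone or with a fixed anchor-drug dose plus five library-drug doses (not always all listed) in √10 steps. After 5 days, cells were fixed and their nuclei stained in one step (final 0.05% Triton X-100, 1% formaldehyde, 1 ug/ml Hoechst), then counted on 4× images. Relative viability is the nuclei count in treated wells divided by that in vehicle wells. Values are medians of duplicate plates.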

[2] = compound: C1=CC2=C(C=CC(=C2)C=C3C(=O)NC(=NCC4=CC=CS4)S3)N=C1 [RO-3306] + C[C@]1(O)C[C@@H](c2nc(-c3ccc4ccc(-c5ccccc5)nc4c3)c3c(N)nccn32)C1 [Linsitinib] (partner 1 µM)
Procedure, shortened: as §1

[3] = compound: C1=CC2=C(C=CC(=C2)C=C3C(=O)NC(=NCC4=CC=CS4)S3)N=C1 [RO-3306] + Cc1cc(Nc2cc(N3CCN(C)CC3)nc(Sc3ccc(NC(=O)C4CC4)cc3)n2)n[nH]1 [Tozasertib] (partner 0.1 µM)
Procedure, shortened: as §1

[4] = compound: O=S(=O)(c1ccccc1)N(CC(F)(F)F)c1ccc(C(O)(C(F)(F)F)C(F)(F)F)cc1 + Nc1ncn([C@H]2C[C@H](O)[C@@H](CO)O2)c(=O)n1 [Decitabine] (partner 2 µM)
Procedure, shortened: as §1

Row | Cell Line | relative viability ([1]; first compound 0.01 µM) | relative viability ([1]; first compound 0.03162 µM) | relative viability ([1]; first compound 0.1 µM) | relative viability ([1]; first compound 0.3162 µM) | relative viability ([1]; first compound 1 µM) | relative viability ([2]; first compound 0.01 µM) | relative viability ([2]; first compound 0.03162 µM) | relative viability ([2]; first compound 0.1 µM) | relative viability ([2]; first compound 0.3162 µM) | relative viability ([2]; first compound 1 µM) | relative viability ([3]; first compound 0.01 µM) | relative viability ([3]; first compound 0.03162 µM) | relative viability ([3]; first compound 0.1 µM) | relative viability ([3]; first compound 0.3162 µM) | relative viability ([3]; first compound 1 µM) | relative viability ([4]; first compound 0.8 µM) | relative viability ([4]; first compound 2.53 µM) | relative viability ([4]; first compound 8 µM)
1 | NCI-H1437 | 1.38 | 1.21 | 1.28 | 1.28 | 1.25 | 1.15 | 0.673 | 0.945 | 1.03 | 1.1 | 0.485 | 0.328 | 0.384 | 0.397 | 0.474 | 0.609 | 0.549 | 0.568
2 | SK-LU-1 | 0.853 | 0.783 | 0.831 | 0.778 | 0.712 | 1.25 | 1.08 | 1.02 | 1.19 | 0.957 | 0.266 | 0.312 | 0.313 | 0.321 | 0.282 | 0.669 | 0.63 | 0.703
3 | NCI-H1915 | 1.14 | 0.891 | 1.15 | 1.11 | 1.23 | 1.16 | 1.11 | 1.08 | 1.08 | 1.07 | 0.498 | 0.406 | 0.416 | 0.394 | 0.427 | 0.287 | 0.281 | 0.29
4 | LU99A | 0.869 | 0.798 | 0.844 | 0.835 | 0.733 | 0.561 | 0.489 | 0.515 | 0.525 | 0.495 | 0.285 | 0.257 | 0.258 | 0.254 | 0.231 | 0.876 | 0.863 | 0.834
5 | NCI-H1975 | 0.975 | 1 | 1.02 | 0.985 | 0.793 | 1.11 | 0.981 | 1.01 | 0.891 | 0.913 | 0.834 | 0.871 | 0.769 | 0.718 | 0.284 | 0.453 | 0.545 | 0.472
6 | SK-MES-1 | 1.06 | 0.425 | 0.996 | 0.782 | 0.976 | 1.14 | 0.859 | 1.16 | 1.16 | 1.15 | 1.02 | 1 | 1.01 | 0.807 | 0.585 | 0.375 | 0.337 | 0.366
7 | NCI-H2009 | 1.32 | 1.24 | 1.2 | 1.19 | 1.2 | 1.22 | 1.12 | 1.18 | 1.23 | 1.23 | 0.816 | 0.707 | 0.722 | 0.671 | 0.707 | 0.366 | 0.372 | 0.369
8 | COR-L 105 | 1.74 | 1.23 | 1.06 | 1.17 | 0.859 | 1.08 | 0.912 | 0.923 | 1.08 | 0.861 | 0.361 | 0.337 | 0.329 | 0.379 | 0.32 | 0.63 | 0.679 | 0.649
9 | LCLC-103H | 0.695 | 0.647 | 0.779 | 0.719 | 0.835 | 1.03 | 0.934 | 1.16 | 1.05 | 1.05 | 0.439 | 0.45 | 0.405 | 0.458 | 0.499 | 0.739 | 0.743 | 0.734
10 | NCI-H3122 | 0.987 | 0.984 | 0.94 | 0.969 | 1.09 | 1.1 | 0.995 | 1.02 | 0.981 | 1.03 | 0.449 | 0.413 | 0.42 | 0.475 | 0.284 | 0.301 | 0.385 | 0.421
11 | NCI-H1355 | 1.04 | – | 1.05 | 1.02 | 0.942 | 1.04 | 0.802 | 0.763 | 0.929 | 0.799 | 0.473 | – | 0.532 | 0.515 | 0.491 | 0.354 | 0.382 | 0.342
12 | NCI-H650 | 0.989 | 0.94 | 1.01 | 1.07 | 1.02 | 0.598 | 0.672 | 0.721 | 0.859 | 0.748 | 0.682 | 0.695 | 0.718 | 0.739 | 0.603 | 0.339 | 0.312 | 0.288
13 | NCI-H661 | 1.01 | 1.07 | 0.981 | 0.985 | 0.999 | 0.569 | 0.458 | 0.581 | 0.586 | 0.728 | 0.333 | 0.382 | 0.351 | 0.339 | 0.337 | 0.612 | 0.569 | 0.498
14 | NCI-H322M | 1.05 | 0.815 | 0.896 | 0.962 | 1.02 | 0.978 | 0.709 | 0.923 | 1.02 | 1.03 | 0.549 | 0.467 | 0.443 | 0.476 | 0.432 | 0.685 | 0.721 | 0.663
15 | PC-3 [JPC-3] | 1.01 | 1 | 1.01 | 1.07 | 1.03 | 0.947 | 0.968 | 0.996 | 0.963 | 0.971 | 0.872 | 0.825 | 0.892 | 0.852 | 0.416 | – | 0.817 | 0.826
16 | NCI-H1944 | 0.966 | 0.884 | 0.818 | 0.92 | 0.915 | 1.22 | 1.07 | 1.08 | 1.36 | 1.17 | 0.235 | 0.25 | 0.234 | 0.259 | 0.242 | 0.461 | 0.456 | 0.483
17 | HCC-827 | 1.07 | 1 | 1.05 | 1.03 | 1.06 | 1.01 | 0.916 | 0.99 | 0.959 | 0.992 | 0.452 | 0.417 | 0.376 | 0.4 | 0.419 | 0.364 | 0.375 | 0.269
18 | NCI-H1666 | 0.936 | 0.891 | 0.905 | 1.04 | 0.935 | 0.829 | 0.693 | 0.684 | 0.823 | 0.834 | 0.64 | 0.588 | 0.59 | 0.631 | 0.59 | 0.697 | 0.661 | 0.684

— the supplement of paper PMC10307832
